Test: Hydrogen peroxide (H2O2) inhibition assay (fluorescence, DCF/horseradish peroxidase)
Type: biochemical
Conditions: for IC50: HCl salt tested where HCl salt MW is given; for Fe-ASC % (cf. 0.4 uM Fe/Asc; cf. CQ, CQ = 100%) / Cu % ASC (cf. CQ = 100%) / Zn % ASC (cf. CQ = 100%): ascorbic acid as reducing substrate; for Fe-ASC % (cf. 0.4 uM Fe/Asc; cf. CQ, CQ = 100%) / Fe-DA % (cf. 0.4 uM Fe/DA; cf. CQ, CQ = 100%): test compound 0.4 μM, lower values = greater inhibition of H2O2; for Fe-DA % (cf. 0.4 uM Fe/DA; cf. CQ, CQ = 100%): dopamine as reducing substrate
Procedure: Assay 1. Hydrogen Peroxide Assay
H2O2 is a strong oxidizer and a highly reactive oxygen species that is known to be toxic to surrounding proteins and organelles, inhibiting their function. […] […] H2O2 generated by the system is assessed by measuring the specific fluorescence profile at the excitation and emission wavelengths of 485 and 530 nm respectively, in the presence of test compound. Test compounds were dissolved in DMSO and tested at concentrations of 0.4 μM. Test compounds are ranked according to their capacity to inhibit H2O2 generated by the system where lower values reflect greater ability to inhibit H2O2 production.

| IC50 [nM] | Fe-ASC % (cf. 0.4 uM Fe/Asc; cf. CQ, CQ = 100%) [% ASC] | Fe-DA % (cf. 0.4 uM Fe/DA; cf. CQ, CQ = 100%) [%] | Cu % ASC (cf. CQ = 100%) | Zn % ASC (cf. CQ = 100%) | SMILES |
| --- | --- | --- | --- | --- | --- |
| 3120 | 198 | 75 | – | – | Cc1ccc(CNCc2cc(=O)n3cccc(O)c3n2)cc1 [Compound 1478] |
| 400 | 178 | 55 | – | – | CCN(CC)Cc1cc(=O)n2c(C)ccc(O)c2n1 [Compound 1490] |
| 1000 | 103 | 54 | – | – | O=c1cc(CN2CCN(Cc3ccccc3F)CC2)nc2c(O)cccn12 [Compound 1515] |
| 300 | 102 | 52 | – | – | CN(Cc1cc(=O)n2cccc(O)c2n1)Cc1ccccc1F [Compound 1516] |
| 350 | 105 | 55 | – | – | CN(Cc1cccc(F)c1)Cc1cc(=O)n2cccc(O)c2n1 [Compound 1517] |
| 350 | 100 | 47 | – | – | Cc1ccc(O)c2nc(CN(C)Cc3cccc(Cl)c3)cc(=O)n12 [Compound 1519] |
| > 10000 | 123 | 50 | – | – | CN(Cc1cc(=O)n2cccc(O)c2n1)C1CCCCC1 [Compound 1521] |
| 1480 | – | – | – | – | Cc1cccc(NCc2cc(=O)n3c(C)ccc(O)c3n2)n1 [Compound 1531] |
| – | – | – | Cu 248% ASC | Zn 101% ASC | CCCc1cnc2c(O)c(CN(C)C)ccn2c1=O [Compound 1631] |

Continued, compound first:

| SMILES | IC50 [nM] | Fe-ASC % (cf. 0.4 uM Fe/Asc; cf. CQ, CQ = 100%) [% ASC] | Fe-DA % (cf. 0.4 uM Fe/DA; cf. CQ, CQ = 100%) [%] | Cu % ASC (cf. CQ = 100%) | Zn % ASC (cf. CQ = 100%) |
| --- | --- | --- | --- | --- | --- |
| CN(CCc1ccccn1)Cc1cc(=O)n2cccc(O)c2n1 [Compound 1476] | 230 | 122 | 46 | – | – |
| CN(Cc1ccc(F)cc1)Cc1cc(=O)n2cccc(O)c2n1 [Compound 1479] | 460 | 147 | 42 | – | – |
| CCCCN(C)Cc1cc(=O)n2cccc(O)c2n1 [Compound 1485] | 530 | 159 | 57 | – | – |
| C#CCN(C)Cc1cc(=O)n2c(C)ccc(O)c2n1 [Compound 1491] | 300 | >222 | 48 | – | – |
| Cc1ccc(O)c2nc(CN(C)Cc3ccc(F)cc3)cc(=O)n12 [Compound 1500] | 360 | 171 | 42 | – | – |
| Cc1ccc(O)c2nc(CNCC3CCCCC3)cc(=O)n12 [Compound 1503] | 230 | 204 | 42 | – | – |
| Cc1ccc(O)c2nc(CNCCc3ccccn3)cc(=O)n12 [Compound 1504] | 310 | 160 | 33 | – | – |
| CC1CCN(Cc2cc(=O)n3cccc(O)c3n2)CC1 [Compound 1506] | > 10000 | 161 | 48 | – | – |
| Cc1ccc(O)c2nc(CN3CCC(C)CC3)cc(=O)n12 [Compound 1508] | 170 | 148 | 32 | – | – |
| CN(Cc1cccc(Cl)c1)Cc1cc(=O)n2cccc(O)c2n1 [Compound 1518] | 580 | 84 | 49 | – | – |
| Cc1ccc(O)c2nc(CN3CCN(Cc4ccccc4F)CC3)cc(=O)n12 [Compound 1522-] | 440 | 156 | 47 | – | – |
| Cc1ccc(O)c2nc(CN(C)C3CCCCC3)cc(=O)n12 [Compound 1523] | 700 | 135 | 49 | – | – |
| Cc1ccc(O)c2nc(CN(C)Cc3cccc(F)c3)cc(=O)n12 [Compound 1525] | 320 | 105 | 46 | – | – |
| Cc1ccc(O)c2nc(CN(C)Cc3ccccc3F)cc(=O)n12 [Compound 1527] | 330 | 133 | 64 | – | – |
| O=C(c1cnc2c(O)cccn2c1=O)N1CCCC1 [Compound 1532] | 900 | – | – | – | – |
| O=C(c1cnc2c(O)cccn2c1=O)N1CCCCC1 [Compound 1533] | 1190 | – | – | – | – |
| CCCc1cnc2c(O)c(-c3cccnc3)c(Cl)cn2c1=O [Compound 1629, 7-Chloro-9-hydroxy-3-propyl-8-(pyridin-3-yl)-4H-pyrido[1,2-a]pyrimidine-4-one] | – | – | – | Cu 204% ASC | Zn 130% ASC |
| CCCc1cnc2c(O)c(-c3c(C)noc3C)c(Cl)cn2c1=O [Compound 1630] | – | – | – | Cu 213% ASC | Zn 129% ASC |
| CC(C)c1cnc2c(O)c(CN(C)C)ccn2c1=O [Compound 1632] | – | – | – | Cu 228% ASC | Zn 106% ASC |
| CC(C)c1cnc2c(O)c(-c3cnn(C)c3)ccn2c1=O [Compound 1633] | – | – | – | Cu 17% ASC | Zn 140% ASC |

From patent US20210230159A1, “4H-PYRIDO[1,2-A]PYRIMIDIN-4-ONE COMPOUNDS” (Prana Biotechnology Limited, priority 2014, published 2021)
